Structures are written as SMILES.

37 compounds from patent US10544095B2 (Pfizer Inc., priority 2015, dated 2020) can be followed below.

Sequence of hTDO2 in human glioblastoma A172 cells (P48775 whole entry): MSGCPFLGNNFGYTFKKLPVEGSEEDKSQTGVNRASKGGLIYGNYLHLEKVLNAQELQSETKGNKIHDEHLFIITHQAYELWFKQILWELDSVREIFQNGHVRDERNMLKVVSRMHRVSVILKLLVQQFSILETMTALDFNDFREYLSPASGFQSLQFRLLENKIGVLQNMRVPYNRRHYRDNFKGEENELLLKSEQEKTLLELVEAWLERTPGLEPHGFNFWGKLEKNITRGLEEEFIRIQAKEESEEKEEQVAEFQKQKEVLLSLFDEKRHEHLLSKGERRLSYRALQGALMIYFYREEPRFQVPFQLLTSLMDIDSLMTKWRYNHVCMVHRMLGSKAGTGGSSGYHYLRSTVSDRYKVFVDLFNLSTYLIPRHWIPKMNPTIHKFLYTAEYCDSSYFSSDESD

This test has as its target hTDO2 in human glioblastoma A172 cells (Homo sapiens (Human), UniProt P48775). The test is described as follows: Cellular assay for TDO2 activity determination in A172 cells. Format: cell-based. The following applies: overnight incubation, kynurenine absorbance at 480 nm. The method in brief: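 Glioblastoma A172 cells with endogenous hTDO2, 1.25×10^4 cells/well, incubated overnight at 37° C. with ten serial compound concentrations in IMDM with 2% FBS. Supernatant kynurenine, after TCA precipitation and 4-(dimethylamino)-benzaldehyde reaction, read at 480 nm against kynurenine standard curve; data curve-fitted.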
By IC50 is commonly meant the concentration that inhibits the measured activity by half. High values mean weaker potency in that assay, low ones greater potency in that assay. In turn, `Cn1cc(CN(CCO)S(=O)(=O)c2ccc(-c3c[nH]c4cc(F)ccc34)cc2)cn1` [Example 114, 4-(6-fluoro-1H-indol-3-yl)-N-(2-hydroxyethyl)-N-((1-methyl-1H-pyrazol-4-yl)methyl) benzenesulfonamide] returned a half-maximal inhibitory concentration (IC50) of 91000 nM. That is a double-digit micromolar value.

In turn, `O=S(=O)(c1ccc(-c2c[nH]c3cc(F)ccc23)cc1)N1CCOC[C@H]1CO` [Example 115, (R)-(4-((4-(6-fluoro-1H-indol-3-yl)phenyl)sulfonyl)morpholin-3-yl)methanol] returned an IC50 of 133 nM.

Compound `C[C@]1(O)CCN(S(=O)(=O)c2ccc(-c3c[nH]c4cc(F)ccc34)cc2)C1` [Example 116, (S)-1-((4-(6-fluoro-1H-indol-3-yl)phenyl)sulfonyl)-3-methylpyrrolidin-3-ol] had an IC50 of 92000 nM.

Compound `O=S(=O)(c1ccc(-c2c[nH]c3cc(F)ccc23)cc1)N(CCO)CCCO` [Example 117, 4-(6-fluoro-1H-indol-3-yl)-N-(2-hydroxyethyl)-N-(3-hydroxypropyl)benzenesulfonamide] had an IC50 of 109 nM.

Regarding `O=S(=O)(c1ccc(-c2c[nH]c3cc(F)ccc23)cc1)N1CCOCC(O)C1` (stereo not shown) [Example 118, 4-((4-(6-fluoro-1H-indol-3-yl)phenyl)sulfonyl)-1,4-oxazepan-6-ol], the IC50 is 89 nM.

With `O=S(=O)(c1ccc(-c2c[nH]c3cc(F)ccc23)cc1)N1CCC(O)(c2ccncn2)C1` (stereo not shown) [Example 119, 1-((4-(6-fluoro-1H-indol-3-yl)phenyl)sulfonyl)-3-(pyrimidin-4-yl)pyrrolidin-3-ol], the IC50 was determined as 123 nM.

In turn, `CN(CC(O)c1cccnn1)S(=O)(=O)c1ccc(-c2c[nH]c3cc(F)ccc23)cc1` (stereo not shown) [Example 121, 4-(6-fluoro-1H-indol-3-yl)-N-(2-hydroxy-2-(pyridazin-3-yl)ethyl)-N-methylbenzene-sulfonamide] had an IC50 of 156 nM.

The compound `Cc1nccn1CC1(O)CCCN(S(=O)(=O)c2ccc(-c3c[nH]c4cc(F)ccc34)cc2)C1` (stereo not shown) [Example 122, 1-((4-(6-fluoro-1H-indol-3-yl)phenyl)sulfonyl)-3-((2-methyl-1H-imidazol-1-yl)methyl) piperidin-3-ol] showed an IC50 of 86000 nM.

As to `O=S(=O)(c1ccc(-c2c[nH]c3cc(F)ccc23)cc1)N1C[C@@H](F)C[C@H]1CO` [Example 123, ((2S,4S)-4-fluoro-1-((4-(6-fluoro-1H-indol-3-yl)phenyl)sulfonyl)pyrrolidin-2-yl)methanol], the concentration for half-maximal inhibition (IC50) was 138 nM. This IC50 is about 620-fold lower than that of the compound before.

`O=S(=O)(c1ccc(-c2c[nH]c3cc(F)ccc23)cc1)N1CCC(O)C1` (stereo not shown) [Example 124, 1-((4-(6-fluoro-1H-indol-3-yl)phenyl)sulfonyl) pyrrolidin-3-ol] had an IC50 of 93500 nM.

As to `O=S(=O)(c1ccc(-c2c[nH]c3cc(F)ccc23)cc1)N1C[C@H](F)C[C@@H]1CO` [Example 125, ((2R,4R)-4-fluoro-1-((4-(6-fluoro-1H-indol-3-yl)phenyl)sulfonyl)pyrrolidin-2-yl)methanol], half-maximal inhibition (IC50) required 97 nM. This IC50 is about 960-fold lower than that of the compound before.

As for `O=S(=O)(c1ccc(-c2c[nH]c3cc(F)ccc23)cc1)N1C[C@@H](F)C[C@@H]1CO` [Example 126, ((2R,4S)-4-fluoro-1-((4-(6-fluoro-1H-indol-3-yl)phenyl)sulfonyl)pyrrolidin-2-yl)methanol], inhibition was half-maximal at 145 nM (IC50).

With `O=C1CCCN1CC1(O)CCN(S(=O)(=O)c2ccc(-c3c[nH]c4cc(F)ccc34)cc2)C1` (stereo not shown) [Example 127, 1-((1-((4-(6-fluoro-1H-indol-3-yl)phenyl)sulfonyl)-3-hydroxypyrrolidin-3-yl)methyl)pyrrolidin-2-one], 85500 nM corresponded to half-maximal inhibition (IC50).

`O=S(=O)(c1ccc(-c2c[nH]c3cc(F)ccc23)cc1)N1CC[C@@H](O)[C@@H](O)C1` [Example 128, (3S,4R)-1-((4-(6-fluoro-1H-indol-3-yl)phenyl)sulfonyl)piperidine-3,4-diol] yielded an IC50 of 93500 nM.

With `O=S(=O)(c1ccc(-c2c[nH]c3cc(F)ccc23)cc1)N1C[C@H](F)[C@@H](O)[C@H](O)[C@H]1CO` [Example 129, (2R,3R,4S,5S)-5-f1uoro-1-((4-(6-fluoro-1H-indol-3-yl)phenyl)sulfonyl)-2-(hydroxymethyl) piperidine-3,4-diol], it took 92000 nM to reach half-maximal inhibition (IC50).

In turn, `O=S(=O)(c1ccc(-c2c[nH]c3cc(F)ccc23)cc1)N1CC[C@@H](O)[C@H](O)C1` [Example 130, (3R,4R)-1-((4-(6-fluoro-1H-indol-3-yl)phenyl)sulfonyl)piperidine-3,4-diol] yielded an IC50 of 96 nM.

Regarding `Cc1nccn1CC1(O)CCN(S(=O)(=O)c2ccc(-c3c[nH]c4cc(F)ccc34)cc2)C1` (stereo not shown) [Example 131, 1-((4-(6-fluoro-1H-indol-3-yl)phenyl)sulfonyl)-3-((2-methyl-1H-imidazol-1-yl)methyl)pyrrolidin-3-ol], the IC50 was found to be 90000 nM.

`O=C1CCCN1CC1(O)CCCN(S(=O)(=O)c2ccc(-c3c[nH]c4cc(F)ccc34)cc2)C1` (stereo not shown) [Example 132, 1-((1-((4-(6-fluoro-1H-indol-3-yl)phenyl)sulfonyl)-3-hydroxypiperidin-3-yl)methyl)pyrrolidin-2-one] gave a half-maximal inhibitory concentration (IC50) of 83000 nM.

`CN(CC(O)c1ncc[nH]1)S(=O)(=O)c1ccc(-c2c[nH]c3cc(F)ccc23)cc1` (stereo not shown) [Example 133, 4-(6-fluoro-1H-indol-3-yl)-N-(2-hydroxy-2-(1H-imidazol-2-yl)ethyl)-N-methylbenzene-sulfonamide] gave an IC50 of 169 nM.

`O=S(=O)(c1ccc(-c2c[nH]c3cc(F)ccc23)cc1)N1C[C@H](O)[C@@H](O)[C@@H]1CO` [Example 134, (2S,3S,4S)-1-((4-(6-fluoro-1H-indol-3-yl)phenyl)sulfonyl)-2-(hydroxymethyl) pyrrolidine-3,4-diol] came in with an IC50 of 125 nM. The IC50 values of the last two compounds are within 1.5-fold of each other.

`CN(CC(O)c1cnccn1)S(=O)(=O)c1ccc(-c2c[nH]c3cc(F)ccc23)cc1` (stereo not shown) [Example 135, 4-(6-fluoro-1H-indol-3-yl)-N-(2-hydroxy-2-(pyrazin-2-yl)ethyl)-N-methylbenzene-sulfonamide] yielded an IC50 of 161 nM.

Compound `NS(=O)(=O)c1ccc(-c2c[nH]c3cc(F)ccc23)c(Cl)c1` [Example 136, 3-chloro-4-(6-fluoro-1H-indol-3-yl) benzenesulfonamide] registered a half-maximal inhibitory concentration (IC50) of 271 nM.

`NS(=O)(=O)c1cc(Cl)c(-c2c[nH]c3cc(F)ccc23)c(Cl)c1` [Example 137, 3,5-dichloro-4-(6-fluoro-H-indol-3-yl)-benzenesulfonamide] had an IC50 of 7510 nM.

`CN(C)C(=O)Cc1cc(-c2c[nH]c3cc(F)ccc23)ccc1S(N)(=O)=O` [Example 138, 2-(5-(6-fluoro-1H-indol-3-yl)-2-sulfamoylphenyl)-N,N-dimethylacetamide] yielded a 50% inhibitory concentration (IC50) of 3160 nM. Against the preceding compound, the IC50 is about 2.4-fold lower.

Consider `NS(=O)(=O)c1ccc(-c2c[nH]c3cc(F)ccc23)cc1CCO` [Example 139, 4-(6-fluoro-1H-indol-3-yl)-2-(2-hydroxyethyl)-benzenesulfonamide], for which half-maximal inhibition (IC50) was put at 120 nM.

With `CNCCc1cc(-c2c[nH]c3cc(F)ccc23)ccc1S(N)(=O)=O` [Example 140, 4-(6-fluoro-1H-indol-3-yl)-2-(2-(methylamino)ethyl)-benzenesulfonamide], half-maximal inhibition (IC50) was put at 541 nM. This IC50 is about 4.5-fold higher than that of the compound before.

`CN(C)CCc1cc(-c2c[nH]c3cc(F)ccc23)ccc1S(N)(=O)=O` [Example 141, 2-(2-(dimethylamino)ethyl)-4-(6-fluoro-1H-indol-3-yl)benzenesulfonamide] gave an IC50 of 295 nM. This IC50 is about 1.8-fold lower than that of the compound before.

Consider `NS(=O)(=O)c1ccc(-c2c[nH]c3cc(F)ccc23)cc1CC(F)(F)F` [Example 142, 4-(6-fluoro-1H-indol-3-yl)-2-(2,2,2-trifluoroethyl)-benzenesulfonamide], for which the IC50 turned out to be 247 nM.

For the compound `CNC(=O)Cc1cc(-c2c[nH]c3cc(F)ccc23)ccc1S(N)(=O)=O` [Example 143, 2-(5-(6-fluoro-1H-indol-3-yl)-2-sulfamoylphenyl)-N-methylacetamide], the IC50 is 550 nM. This IC50 is about 2.2-fold higher than that of the compound before.

On to `NC(=O)Cc1cc(-c2c[nH]c3cc(F)ccc23)ccc1S(N)(=O)=O` [Example 144, 2-(5-(6-fluoro-1H-indol-3-yl)-2-sulfamoylphenyl)-acetamide], for which half-maximal inhibition (IC50) was put at 174 nM.

For `CN1C(=O)CN(S(=O)(=O)c2ccc(-c3c[nH]c4cc(F)ccc34)cc2)CC1=O` [Example 145, 4-((4-(6-fluoro-1H-indol-3-yl)phenyl)sulfonyl)-1-methylpiperazine-2,6-dione], the midpoint of inhibition, the IC50, lay at 3610 nM.

The compound `O=C1CN(S(=O)(=O)c2ccc(-c3c[nH]c4cc(F)ccc34)cc2)CCN1C[C@@H](O)CO` [Example 146, (R)-1-(2,3-dihydroxypropyl)-4-((4-(6-fluoro-1H-indol-3-yl)phenyl)sulfonyl)piperazin-2-one] yielded an IC50 of 380 nM.

Compound `O=C1CN(S(=O)(=O)c2ccc(-c3c[nH]c4cc(F)ccc34)cc2)CCN1C[C@H](O)CO` [Example 147, (S)-1-(2,3-dihydroxypropyl)-4-((4-(6-fluoro-1H-indol-3-yl)phenyl)sulfonyl)piperazin-2-one] registered an IC50 of 441 nM.

Compound `NCCN1CCN(S(=O)(=O)c2ccc(-c3c[nH]c4cc(F)ccc34)cc2)CC1=O` [Example 148, 1-(2-aminoethyl)-4-((4-(6-fluoro-1H-indol-3-yl)phenyl)sulfonyl)piperazin-2-one] gave an IC50 of 570 nM.

Turning to `CN(C)CCN1CCN(S(=O)(=O)c2ccc(-c3c[nH]c4cc(F)ccc34)cc2)CC1=O` [Example 149, 1-(2-(dimethylamino)ethyl)-4-((4-(6-fluoro-1H-indol-3-yl)phenyl)sulfonyl)piperazin-2-one], inhibition was half-maximal at 443 nM (IC50).

Take `CNCCN1CCN(S(=O)(=O)c2ccc(-c3c[nH]c4cc(F)ccc34)cc2)CC1=O` [Example 150, 4-((4-(6-fluoro-1H-indol-3-yl)phenyl)sulfonyl)-1-(2-(methylamino)ethyl) piperazin-2-one]: the IC50 was found to be 365 nM.

Compound `O=C1CN(S(=O)(=O)c2ccc(-c3c[nH]c4cc(F)ccc34)cc2)CCN1CCO` [Example 151, 4-((4-(6-fluoro-1H-indol-3-yl)phenyl)sulfonyl)-1-(2-hydroxyethyl)piperazin-2-one] had an IC50 of 439 nM.
